In data set [1] the target is nicotinic receptors containing the α7 subunit (Rattus norvegicus, UniProt Q05941). The data set can be described thus: biochemical. In kind it is binding.

Among the data in patent publication US8557819B2 (priority 2005, dated 2013) are melting point and IC50 values, retold here.

Structures can show the parent of a compound that is named as a salt.

The term melting point denotes the temperature of the solid-liquid transition. For orientation: IC50 means the concentration at which inhibition is half-maximal.

Chain of nicotinic receptors containing the α7 subunit (Q05941 23-502): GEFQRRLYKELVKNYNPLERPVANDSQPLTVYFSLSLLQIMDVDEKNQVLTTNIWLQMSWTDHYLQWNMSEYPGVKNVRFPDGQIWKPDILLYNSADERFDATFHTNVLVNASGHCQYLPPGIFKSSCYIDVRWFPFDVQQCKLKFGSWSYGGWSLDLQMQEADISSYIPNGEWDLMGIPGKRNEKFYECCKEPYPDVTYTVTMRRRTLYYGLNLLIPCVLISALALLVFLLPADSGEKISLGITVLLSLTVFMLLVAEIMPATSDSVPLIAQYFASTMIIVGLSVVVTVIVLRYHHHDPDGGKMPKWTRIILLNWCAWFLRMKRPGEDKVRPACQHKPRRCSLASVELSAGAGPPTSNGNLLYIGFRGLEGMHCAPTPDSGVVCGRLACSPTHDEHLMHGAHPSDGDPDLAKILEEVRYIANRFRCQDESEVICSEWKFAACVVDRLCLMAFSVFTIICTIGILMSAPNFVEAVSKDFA

As for `c1n[nH]cc1-c1ccc(C23CCCN(CC2)C3)nn1` (stereo not drawn) (as salt: HBr) [22], the melting point lay in the range of 295 to 297 °C.

For `Clc1ccc(C23CCCN(CC2)C3)nn1` (racemic) (as salt: HCl), the melting point was 234 to 235 °C.

Consider `c1cc(-c2ccc(C34CCCN(CC3)C4)nn2)co1` (stereo not drawn) (as salt: HCl), for which the melting point fell in the range of 226 to 228 °C.

In the case of `COc1ccc(-c2ccc(C34CCCN(CC3)C4)nn2)cc1` (racemic) [Compound 7], in data set [1], the IC50 was found to be 164 nM.

On to `c1c[nH]c(-c2ccc(C34CCCN(CC3)C4)nn2)c1` (stereo not drawn), for which the melting point was 207 to 209 °C.

`c1coc(-c2ccc(C34CCCN(CC3)C4)nn2)c1` (racemic) [Compound 8]: the IC50 in data set [1] worked out at 442 nM.

Compound `COc1ccc(-c2ccc(C34CCCN(CC3)C4)nn2)cc1` (racemic) (as salt: HCl) [Compound 7] yielded a melting point of 229 to 231 °C.

In turn, `c1nc(-c2ccc(C34CCCN(CC3)C4)nn2)c[nH]1` (stereo not drawn) (as salt: HCl) [18] came in with a melting point of 271 to 273 °C.

In turn, `c1cc(-c2ccc(C34CCCN(CC3)C4)nn2)co1` (racemic) came in with a melting point of 140 to 141 °C.

Regarding `c1coc(-c2ccc(C34CCCN(CC3)C4)nn2)c1` (racemic) (as salt: HCl) [Compound 8], the melting point lay in the range of 274 to 275 °C.

Take `c1c[nH]c(-c2ccc(C34CCCN(CC3)C4)nn2)n1` (stereo not drawn) (as salt: HBr): the melting point was 290 to 292 °C.

As for `c1cncc(-c2ccc(C34CCCN(CC3)C4)nn2)c1` (racemic), the melting point is 131 to 133 °C.

`Cc1csc(-c2ccc(C34CCCN(CC3)C4)nn2)c1` (racemic) [Compound 3]: the melting point was 139 to 140 °C. In data set [1], this compound displayed an IC50 of 428 nM.

Compound `c1n[nH]cc1-c1ccc(C23CCCN(CC2)C3)nn1` (stereo not drawn) (as salt: HBr) [20] had a melting point of 221 to 223 °C.
